Results on eleven compounds are retold here after patent publication US8115005B2, “Pyrazolylphenyl and pyrrolylphenyl inhibitors of LTA4H for treating inflammation” (Decode Genetics EHF., priority 2006, dated 2012).

Where a name gives a salt, the structure may show the parent alone.

The target of the first test is T1, recombinant human LTA4 hydrolase (Homo sapiens, UniProt P09960).
T1 construct: A human LTA4 hydrolase full-length cDNA clone (NM_000895) was purchased from OriGene Technologies; own knowledge that pDEST17 adds an N-terminal 6xHis, consistent with the Ni-NTA purification) (N); made in house; host or cells: Escherichia coli BL21-AI
T1 sequence (P09960 1-611): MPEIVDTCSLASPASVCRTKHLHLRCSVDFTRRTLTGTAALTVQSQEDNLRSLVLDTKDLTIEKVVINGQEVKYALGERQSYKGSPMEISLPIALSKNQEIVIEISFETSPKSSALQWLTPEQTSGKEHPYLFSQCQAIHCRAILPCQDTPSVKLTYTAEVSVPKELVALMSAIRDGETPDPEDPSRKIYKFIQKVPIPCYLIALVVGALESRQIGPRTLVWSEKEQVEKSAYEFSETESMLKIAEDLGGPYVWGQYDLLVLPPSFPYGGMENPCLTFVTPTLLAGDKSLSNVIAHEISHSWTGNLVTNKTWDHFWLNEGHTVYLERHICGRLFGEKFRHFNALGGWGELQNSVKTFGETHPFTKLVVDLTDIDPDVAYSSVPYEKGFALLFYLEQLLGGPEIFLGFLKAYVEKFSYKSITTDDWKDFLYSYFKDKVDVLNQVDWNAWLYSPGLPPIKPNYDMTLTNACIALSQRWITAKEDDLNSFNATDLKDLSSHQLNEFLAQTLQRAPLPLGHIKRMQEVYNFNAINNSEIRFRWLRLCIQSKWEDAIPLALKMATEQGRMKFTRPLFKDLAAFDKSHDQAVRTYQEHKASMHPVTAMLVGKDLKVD
As to the kind of experiment: In vitro assay testing inhibitory activity against purified recombinant human LTA4 hydrolase. It counts as biochemical. The conditions noted are these: LTB4 formation; table does not say which of the two described assays (enzyme or human whole blood). From the text:
(1) In vitro assay testing inhibitory activity against purified recombinant human LTA4 hydroase. A human LTA4 hydrolase full-length cDNA clone (NM_000895) was purchased from OriGene Technologies (Rockville, Md.). The gene was amplified by polmerase chain reaction and transferred via pDONR201 into the bacterial expression vector pDEST17 by recombination (both plasmids from Invitrogen, Carlsbad, Calif.). The resulting construct was transformed into Escherichia coli BL21-AI (Invitrogen), and expression was induced by chemical induction with arabinose. The recombinant enzyme was purified by chromatography on an FPLC system (Amersham Biosciences, Uppsala, Sweden) using immobilized metal affinity chromatography (Ni-NTA Superflow, Qiagen, Hilden, Germany) and anion exchange chromatography (MonoQ HR 10/10, Amersham Biosciences).
The compounds of the invention were incubated in a series of dilutions with 200 nM of recombinant enzyme in assay buffer (100 mM Tris-HCl, 100 mM NaCl, 5 mg/ml fatty-acid free BSA, 10% DMSO, pH 8.0) for 10 min at room temperature to allow binding between LTA4 hydrolase and the inhibitors. LTA4 was prepared by alkaline hydrolysis of LTA4 methyl ester (Biomol, Plymouth Meeting, Pa., or Cayman Chemicals, Ann Arbor, Mich.). A solution of 10 μg of the ester was dried under a nitrogen stream and redissolved in 60 μl of a solution of 80% acetone and 20% 0.25 M NaOH. After incubation for 40 min at room temperature the resulting approximately 500 μM tock of LTA4 was kept at −80° C. for no more than a few days prior to use.
Immediately before the assay, LTA4 was diluted to a concentration of 10 μM in assay buffer (without DMSO) and added to the reaction mixture to a final concentration of 2 μM to initiate the enzyme reaction. After incubation for 120 sec at room temperature, the reaction was stopped by adding 2 volumes of chilled quenching buffer, containing acetonitril with 1% acetic acid and 225 nM LTB4-d4 (Biomol). The samples were then kept at 4° C. overnight to complete protein precipitation and centrifuged for 15 min at 1800 g. LTB4 formed was measured by LC-MS/MS using LTB4-d4 as an internal standard and an external LTB4 standard (Biomol) as reference. Based on the amounts of LTB4 found at each inhibitor concentration, a dose-response curve was fitted to the data and an IC50 value was calculated.
As for `c1cnn(-c2ccc(OCCN3CCCCC3)cc2)c1` [Example 1, 1-[2-(4-Pyrazol-1-yl-phenoxy)-ethyl]-piperidine], the IC50 lay in the range of 5 to 20 µM.

Take `Cc1ccn(-c2ccc(OCCN3CCCCC3)cc2)n1` [Example 2, 1-{2-[4-(3-Methyl-pyrazol-1-yl)-phenoxy]-ethyl}-piperidine]: the IC50 fell in the range of 5 to 20 µM.

For `Cc1cc(C)n(-c2ccc(OCCN3CCCCC3)cc2)n1` [Example 3, 1-{2-[4-(3,5-Dimethyl-pyrazol-1-yl)-phenoxy]-ethyl}-piperidine], the IC50 is less than 5 µM.

Regarding `FC(F)(F)c1ccnn1-c1ccc(OCCN2CCCCC2)cc1` [Example 4, 1-{2-[4-(5-Trifluoromethyl-pyrazol-1-yl)-phenoxy]-ethyl}-piperidine], the IC50 lay in the range of 5 to 20 µM.

With `Cc1cc(C(F)(F)F)n(-c2ccc(OCCN3CCCCC3)cc2)n1` [Example 5, 1-{2-[4-(3-Methyl-5-trifluoromethyl-pyrazol-1-yl)-phenoxy]-ethyl}-piperidine], the IC50 is less than 5 µM.

Consider `Cc1c(C(F)F)cnn1-c1ccc(OCCN2CCCCC2)cc1` [Example 6, 1-{2-[4-(4-Difluoromethyl-5-methyl-pyrazol-1-yl)-phenoxy]-ethyl}-piperidine], for which the IC50 lay in the range of 5 to 20 µM.

On to `c1ccn(-c2ccc(OC[C@H]3CCCN3)cc2)c1` [Example 7, 1-[4-((R)-1-Pyrrolidin-2-ylmethoxy)-phenyl]-1H-pyrrole hydrochloride], for which the concentration for half-maximal inhibition (IC50) is less than 5 µM.

For `c1ccn(-c2ccc(OCCN3CCCCC3)cc2)c1` [Example 8, 1-[2-(4-Pyrrol-1-yl-phenoxy)-ethyl]-piperidine], the IC50 is less than 5 µM.

As to `Brc1cccn1-c1ccc(OCCN2CCCCC2)cc1` [Example 9, 1-{2-[4-(2-Bromo-pyrrol-1-yl)-phenoxy]-ethyl}-piperidine], the IC50 is less than 5 µM.

Regarding `O=Cc1cccn1-c1ccc(OCCN2CCCCC2)cc1` [Example 10, 1-[4-(2-Piperidin-1-yl-ethoxy)-phenyl]-1H-pyrrole-2-carbaldehyde], the IC50 was less than 5 µM.

The next test deals with T2, LTA4H (Mus musculus, UniProt P24527).
T2 construct: host or cells: mouse blood (ex vivo, after oral dosing)
T2 sequence (P24527 1-611): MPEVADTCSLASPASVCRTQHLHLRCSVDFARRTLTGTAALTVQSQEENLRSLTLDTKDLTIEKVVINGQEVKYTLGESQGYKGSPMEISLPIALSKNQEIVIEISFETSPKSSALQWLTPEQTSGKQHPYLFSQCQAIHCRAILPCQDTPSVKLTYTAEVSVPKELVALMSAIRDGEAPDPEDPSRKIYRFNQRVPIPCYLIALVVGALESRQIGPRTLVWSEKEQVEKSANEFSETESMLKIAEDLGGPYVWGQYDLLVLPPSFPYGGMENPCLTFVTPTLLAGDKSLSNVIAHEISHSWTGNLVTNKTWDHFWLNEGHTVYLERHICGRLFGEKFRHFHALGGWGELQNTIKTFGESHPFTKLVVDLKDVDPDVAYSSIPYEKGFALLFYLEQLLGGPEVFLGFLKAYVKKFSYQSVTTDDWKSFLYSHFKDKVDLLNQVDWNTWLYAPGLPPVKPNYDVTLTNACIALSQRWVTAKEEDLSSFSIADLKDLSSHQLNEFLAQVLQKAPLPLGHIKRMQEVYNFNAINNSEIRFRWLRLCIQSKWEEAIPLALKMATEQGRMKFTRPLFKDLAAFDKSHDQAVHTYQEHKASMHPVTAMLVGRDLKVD
Experiment: not given
The conditions noted are these: oral administration, mouse blood ex vivo; cited from earlier work.
In the case of `CN(CCCOc1ccc(Cc2ccccc2)cc1)CCC(=O)O.Cl` [SC57461], the “inhibition of ionophore-induced LTB4 production” value is “inhibition of ionophore-induced LTB4 production”.

In a further test the target is T3, LTA4H (Rattus norvegicus, UniProt P30349).
T3 construct: and in rat peritoneum in vivo; host or cells: rat peritoneum (in vivo, after oral dosing)
T3 sequence (P30349 1-611): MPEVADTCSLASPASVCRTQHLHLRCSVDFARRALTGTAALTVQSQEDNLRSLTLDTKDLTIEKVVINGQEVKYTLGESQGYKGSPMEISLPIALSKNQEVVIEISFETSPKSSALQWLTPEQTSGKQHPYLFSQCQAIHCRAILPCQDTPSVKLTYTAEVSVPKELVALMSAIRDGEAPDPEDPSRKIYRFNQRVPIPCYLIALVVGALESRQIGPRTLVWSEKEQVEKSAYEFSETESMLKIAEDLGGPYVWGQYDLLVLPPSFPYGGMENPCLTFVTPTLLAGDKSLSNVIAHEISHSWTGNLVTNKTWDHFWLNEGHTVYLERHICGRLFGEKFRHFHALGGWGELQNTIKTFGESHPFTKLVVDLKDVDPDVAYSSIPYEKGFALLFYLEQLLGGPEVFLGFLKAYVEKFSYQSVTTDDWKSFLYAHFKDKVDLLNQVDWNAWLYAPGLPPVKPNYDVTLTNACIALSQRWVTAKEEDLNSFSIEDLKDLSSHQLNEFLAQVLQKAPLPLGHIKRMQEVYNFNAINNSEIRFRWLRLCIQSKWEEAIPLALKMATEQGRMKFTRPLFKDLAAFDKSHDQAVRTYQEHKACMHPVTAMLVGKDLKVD
Experiment: not given
The conditions noted are these: oral administration, rat peritoneum in vivo; cited from earlier work.
For `CN(CCCOc1ccc(Cc2ccccc2)cc1)CCC(=O)O.Cl` [SC57461], the “inhibition of ionophore-induced LTB4 production” value was “inhibition of ionophore-induced LTB4 production”.

The subject of the next test is colitis symptoms.
Experiment: not given
The following applies: eight weeks of treatment, primate model of spontaneous colitis; cited from earlier work.
As for `CN(CCCOc1ccc(Cc2ccccc2)cc1)CCC(=O)O.Cl` [SC57461], the colitis symptoms result is “significantly improved colitis symptoms”.
